Reference: US11059855B2, “Antimicrobial peptides and methods of making and using same” (priority 2017, dated 2021)

How the values were obtained:
[1] = tested on: Escherichia coli biofilm; assay: Activity against biofilm, E. coli; assay type: cell-based; details: 67-150 μM peptide, 3 hr treatment
Description: Selected analogues were tested with each (13A). Escherichia coli biofilm, (13B). Staphylococcus aureus biofilm, and (13C) Pseudomonas aeruginosa biofilm.
However, most of the LDKA analogues fail to treat S. aureus and P. aeruginosa biofilms. Only K7H and 7F3 are capable to reduce S. aureus biofilms by ˜50% with 100 μM peptide concentration, and none of the analogues work against P. aeruginosa biofilms (FIGS. 13a-13c).

[2] = Membrane selectivity from high-throughput dye leakage screen; assay type: biochemical; details: PC = POPC, PG = POPG
Description: (§1) This detects and quantifies the release of a small fluorescent dye (ANTS/DPX; MW=˜400 Da) encapsulated in LUVs after addition of library peptides. Neutral POPC LUVs serve as a simple model for mammalian membranes, while charged POPG LUVs mimic bacterial membranes enriched in anionic lipids.

[3] = Circular dichroism secondary structure (Dichroweb), with POPC; assay type: physicochemical
Description: (§2) Dichroweb software analyzes the secondary structure of LDKA peptides from circular dichroism spectroscope. The table presents the percentage of each helix and strand structure at different temperature. The data are analyzed using CONTIN-LL method and Reference Set 4 (Optimised for 190-240 nm).
(§3) Peptide solutions (peptide concentration is 50 μM) were titrated with POPC and POPG LUVs (50, 100, 250, 500, 1000 μM) and the corresponding changes CD spectra collected. Analysis of these spectra using CD tools and Dichroweb provides an ensemble average of the changes in secondary structure in the presence of POPC and POPG LUVs (dichroweb.cryst.bbk.ac.uk), which gives a direct measure of the binding free energies for each peptide.

[4] = ANTS/DPX leakage assay, POPG; assay type: biochemical; details: P:L = 1:1000, pH 7 phosphate buffer
Description: (§4) 5 mM ANTS and 12.5 mM DPX were entrapped in 0.1 μm diameter extruded vesicles with lipids. Gel filtration chromatography of Sephadex G-100 (GE Healthcare Life Sciences Inc.) was used to remove external free ANTS/DPX from LUVs with entrapped contents. […] Leakage was measured after 3 hr incubation. 10% Triton was used as the positive control to measure the maximum leakage of the vesicle. Fluorescence emission spectra were recorded using excitation wavelength (Ex: 350 nm) and emission wavelength (Em: 510 nm) for ANTS/DPX using Synergy H1 Hybrid Multi-Mode Reader.
as §1

[5] = tested on: P. aeruginosa; assay: Bacterial minimum inhibitory concentration (MIC), P. aeruginosa; assay type: cell-based, Pseudomonas aeruginosa; details: 75 μM maximum tested; NDA = not determinable
Description: (§5) Escherichia colt strain ATCC 25922, Staphylococcus aureus strain ATCC 25923, and Pseudomonas aeruginosa strain ATCC PAO1 were used in this study. Overnight cultures were subcultured to log phase (OD600=0.3-0.6) after which cell counts were determined by measuring the OD600 (OD600 1.0=1.5×10^8 CFU/mL for S. aureus, 5×10^8 CFU/mL for E. colt, and 2.04×10^8 CFU/mL for P. aeruginosa). Bacteria in minimal media mere added to serially diluted peptides and incubated for 3 hr, followed by the addition of full growth media. After overnight incubation, the optical density of the wells was recorded on a plate reader to determine whether they were sterilized (OD<0.08) or were at stationary phase growth (OD600>0.5). Intermediate values, which were rare, were considered positive for growth. Average minimum sterilizing concentrations were calculated from the lowest peptide concentration that sterilized the bacteria in each serial dilution. The samples were done in sextuplet.

[6] = tested on: methicillin-resistant Staphylococcus aureus (MRSA); assay type: cell-based; details: 75 μM maximum tested; NDA = not determinable
[7] = tested on: S. aureus; assay: Bacterial minimum inhibitory concentration (MIC), S. aureus; assay type: cell-based, Staphylococcus aureus; details: 75 μM maximum tested; NDA = not determinable
Description: as §5

[8] = Circular dichroism secondary structure (Dichroweb), with POPG; assay type: physicochemical
Description: as §2, §3

[9] = ANTS/DPX leakage assay, POPC; assay type: biochemical; details: P:L = 1:1000, pH 7 phosphate buffer
Description: as §4, §1

[10] = Pore-size characterization by 3-kDa dextran release; assay type: biochemical; details: ‡Large pore for PG only
Description: Eight LDKA peptides with different lipid selectivity and pore sizes were selected from the high-throughput screen and sequenced. […] The most common mutation is L to A, occurred 13 times and in 7 out of the 8 peptides, followed by A to L, which occurred 6 times in 5 peptides, L to D which occurred 3 times in 3 peptides, and L to P that occurred once. Lysine (K) is not favorable to be shown at the position 6, 8, 10, 12, and 13, which is the non-polar face of the helical structure. […] More specifically, the analogs only induce leakage from anionic POPG vesicles have 4-5 leucines, which is less than the analogs that can porate both POPC and POPG vesicles and have 6-7 leucines in their sequences.

[11] = Circular dichroism secondary structure (Dichroweb), peptide only; assay type: physicochemical; details: 20 °C
Description: as §2, §3

[12] = 3-kDa dextran macromolecule release assay, POPG; assay type: biochemical; details: P:L = 1:1000, pH 7 phosphate buffer
[13] = provided by the distributor, GenScript; cited from earlier work

Substance | Elimination of E. coli biofilm [1] [%] | Membrane selectivity (POPC vs POPG vesicles) [2] | Peptide-POPC, Helix ([3]; 20 °C) [%] | Peptide-POPC, Strand ([3]; 20 °C) [%] | Peptide-POPC, Helix ([3]; 45 °C) [%] | Peptide-POPC, Strand ([3]; 45 °C) [%] | Peptide-POPC, Helix ([3]; 70 °C) [%] | Peptide-POPC, Strand ([3]; 70 °C) [%] | Peptide-POPC, Helix ([3]; 95 °C) [%] | Peptide-POPC, Strand ([3]; 95 °C) [%] | ANTS/DPX release, POPG [4] [%] | Minimum Inhibitory Concentration, P. aeruginosa [5] | Minimum Inhibitory Concentration, MRSA [6] | Minimum Inhibitory Concentration, S. aureus [7] | Peptide-POPG, Helix ([8]; 20 °C) [%] | Peptide-POPG, Strand ([8]; 20 °C) [%] | Peptide-POPG, Helix ([8]; 45 °C) [%] | Peptide-POPG, Strand ([8]; 45 °C) [%] | Peptide-POPG, Helix ([8]; 70 °C) [%] | Peptide-POPG, Strand ([8]; 70 °C) [%] | also measured
H-GLADAAKLLLKAAGW-NH2 [Peptide 11D12] | ~50 | PG > PC | 38 | 12 | 39 | 10 | 39 | 9 | 33 | 12 | 101 | NDA | NDA | NDA | 96 | 0 | 92 | 0 | 90 | 0 | Peptide-POPG, Helix ([8]; 95 °C): 77%; Peptide-POPG, Strand ([8]; 95 °C): 1%; ANTS/DPX release, POPC [9]: 8%; Pore size [10]: Large; Peptide-only, Strand [11]: 8%; 3-kDa Dextran release, POPG [12]: 58%; Solubility, DMSO [13]: 20 mg/mL; Solubility, DPBS pH 7.1 [13]: 10 mg/mL; Solubility, Ultrapure Water [13]: 10 mg/mL
H-GLLDLPKALAKALGW-NH2 [Peptide 7G6] | ~50 | PG > PC | 49 | 10 | 56 | 6 | 47 | 10 | 30 | 20 | 105 | NDA | NDA | NDA | 86 | 2 | 87 | 2 | 82 | 3 | Peptide-POPG, Helix ([8]; 95 °C): 75%; Peptide-POPG, Strand ([8]; 95 °C): 3%; ANTS/DPX release, POPC [9]: 48%; Pore size [10]: Small; Peptide-only, Strand [11]: 10%; 3-kDa Dextran release, POPG [12]: -1%; Solubility, DMSO [13]: 15 mg/mL; Solubility, DPBS pH 7.1 [13]: 15 mg/mL; Solubility, Ultrapure Water [13]: 10 mg/mL
